Experimental findings from US11850247B2, “Antiviral compounds” (REGENTS OF THE UNIVERSITY OF MINNESOTA, priority 2020, dated 2023) are described below.

One data set deals with HIV-1. In words: Anti-HIV-1 activity in TZM-GFP cells (viral LTR-activated GFP expression). The format is cell-based. The settings on record: for EC50: Human immunodeficiency virus 1, HIV-1 strain MOI=1, GFP positive cells counted after 48 hours; for inhibition at 2 µM: Human immunodeficiency virus 1, 2 μM compound; for inhibition at 2 µM / inhibition at 20 µM: HIV-1 MOI=1; for inhibition at 20 µM: Human immunodeficiency virus 1, 20 μM compound. In short, it runs like this: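 TZM-GFP cells treated with increasing compound for 24 h, then infected with HIV-1 (MOI=1); EC50 based on inhibition of LTR-driven GFP expression versus DMSO controls. CC50 determined by XTT after 72 h continuous exposure in the same cells; duplicate, ≥2 independent experiments, variable-slope curve fit.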

Data set [1] can be described thus: Cytotoxicity in TZM-GFP cells (XTT). The format is cell-based. The settings on record: human, 72 hours exposure, XTT. In short, it runs like this:
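TZM-GFP cells (1×10^4 per well) exposed continuously to increasing compound concentrations for 72 hours. Viable cells measured by XTT; CC50 from log(inhibitor) vs. normalized response-variable slope fit, averaged over at least two independent duplicate experiments.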

The target of data set [2] is covalently-crosslinked hexameric CA A14C/E45C/W184A/M185A (CA121) (Human immunodeficiency virus type 1 group M subtype B, UniProt P12493, A146C/E177C/M317A/W316A). In words: Thermal shift assay (TSA), CA hexamer stability. The class given is binding, HIV-1. Conditions: compound 20 μM, ΔTm=Tm−T0 vs DMSO.
Data set [3] can be described thus: Microsomal stability assay, human liver microsomes. The class given is in vitro ADME. The method, then:
(§1) The in vitro microsomal stability assay was conducted in duplicate in mouse and human liver microsomal systems, which were supplemented with nicotinamide adenine dinucleotide phosphate (NADPH) as a cofactor. […] The reaction was initiated by addition of 1 mM NADPH, followed by incubation at 37° C. A negative control was performed in parallel in the absence of NADPH to measure any chemical instability or non-NADPH dependent enzymatic degradation for each compound. At various time points (0, 5, 15, 30, and 60 minutes), 1 volume of reaction aliquot was taken and quenched with 3 volumes of acetonitrile containing an appropriate internal standard and 0.1% formic acid. The samples were then vortexed and centrifuged at 15,000 rpm for 5 minutes at 4° C. The supernatants were collected and analyzed by LC-MS/MS to determine the in vitro metabolic half-life (t1/2).

A short description of data set [4]: Microsomal stability assay, mouse liver microsomes. The class given is in vitro ADME. The settings on record: NADPH. The method, then: as §1
Setting [5] is: pH 7.4, with Cobicistat 0.5 μM (CYP3A inhibitor), human liver microsomes, 1 μM compound, NADPH, with 0.5 μM Cobicistat (CYP3A inhibitor), read-out: HLM (+Cobi) half-life (t1/2).
Setting [6] is: pH 7.4, human liver microsomes, 1 μM compound, NADPH, without Cobicistat, read-out: HLM half-life (t1/2).
Where [7] appears, read: pH 7.4, 1 μM compound, without Cobicistat, read-out: MLM half-life (t1/2).
The mark [8] stands for this setting: pH 7.4, with Cobicistat 0.5 μM (CYP3A inhibitor), 1 μM compound, with 0.5 μM Cobicistat (CYP3A inhibitor), read-out: MLM (+Cobi) half-life (t1/2).

Some results are limits rather than exact numbers.

`O=C(Cn1c(=O)[nH]c2ccccc2c1=O)N[C@@H](Cc1ccccc1)C(=O)N1CCC[C@H]1C(=O)Nc1ccccc1` [Example 33, (S)-1-((2-(2,4-dioxo-1,4-dihydroquinazolin-3(2H)-yl)acetyl)-L-phenylalanyl)-N-phenylpyrrolidine-2-carboxamide] returned an EC50 in the data set on HIV-1 of 1.6 ± 0.1 µM. In data set [1], this compound came in with a CC50 at 72 h greater than 100 µM. Further, the “TSA ΔTm (° C.)” value in data set [2] is 2.5 °C. Moreover, the “half-life in HLMs relative to PF74” value in data set [3] (human liver microsomes, ratio of t1/2 to that of PF74) worked out at 44 fold. Also, in data set [3] (setting [5]), the half-life at 1 μM was found to be 578 min. Also, the “half-life in combination with Cobicistat compared with PF74” value in data set [3] (with CYP3A inhibitor Cobicistat, microsome species not given) was “significantly longer half-life than that of PF74”.
Regarding `CN(C(=O)[C@H](Cc1ccccc1)NC(=O)CNC(=O)c1ccccc1)c1ccc(Cl)cc1` [Example 36, (S)—N-(2-((1-((4-chlorophenyl)(methyl)amino)-1-oxo-3-phenylpropan-2-yl)amino)-2-oxoethyl)benzamide], the midpoint of the response with HIV-1, the EC50, lay at 0.88 ± 0.02 µM. Moreover, in data set [1], the CC50 at 72 h was greater than 50 µM. Besides, the “TSA ΔTm (° C.)” value in data set [2] was 4.1 °C.
Regarding `CN(C(=O)[C@H](Cc1ccccc1)NC(=O)CNC(=O)c1ccccc1)c1cccc(Cl)c1` [Example 37, (S)—N-(2-((1-((3-chlorophenyl)(methyl)amino)-1-oxo-3-phenylpropan-2-yl)amino)-2-oxoethyl)benzamide], in the data set on HIV-1, the inhibition at 2 µM was found to be 40% and testing at 20 µM gave an inhibition of 95%. In data set [1], this compound showed a CC50 at 72 h greater than 50 µM. Further, in data set [2], the “TSA ΔTm (° C.)” value worked out at 2.0 °C.
For `CN(C(=O)[C@H](Cc1ccccc1)NC(=O)CNC(=O)c1ccccc1)c1ccc(F)cc1` [Example 38, (S)—N-(2-((1-((4-fluorophenyl)(methyl)amino)-1-oxo-3-phenylpropan-2-yl)amino)-2-oxoethyl)benzamide] the same measures were 12%, 97%, greater than 50 µM and 2.2 °C.
In the same order, the values of `CN(C(=O)[C@H](Cc1ccccc1)NC(=O)CNC(=O)c1ccccc1)c1cccc(F)c1` [Example 39, (S)—N-(2-((1-((3-fluorophenyl)(methyl)amino)-1-oxo-3-phenylpropan-2-yl)amino)-2-oxoethyl)benzamide] are 3%, 94%, greater than 50 µM and 0 °C.
In the same order, the values of `CN(C(=O)[C@H](Cc1ccccc1)NC(=O)CNC(=O)c1ccccc1)c1cccc(Br)c1` [Example 40, (S)—N-(2-((1-((3-bromophenyl)(methyl)amino)-1-oxo-3-phenylpropan-2-yl)amino)-2-oxoethyl)benzamide] are 38%, 97%, greater than 50 µM and 2.2 °C.
`CCN(C(=O)[C@H](Cc1ccccc1)NC(=O)CNC(=O)c1ccccc1)c1ccccc1` [Example 41, (S)—N-(2-((1-(ethyl(phenyl)amino)-1-oxo-3-phenylpropan-2-yl)amino)-2-oxoethyl)benzamide] yielded an EC50 with HIV-1 of 2.5 ± 0.03 µM. This compound also gave a CC50 at 72 h in data set [1] greater than 50 µM. Also, in data set [2], the “TSA ΔTm (° C.)” value was −2.5 °C.
In the data set on HIV-1, `Cc1cn(CC(=O)N[C@@H](Cc2ccccc2)C(=O)N(C)c2ccccc2)c(=O)[nH]c1=O` [Example 42, (S)—N-methyl-2-(2-(5-methyl-2,4-dioxo-3,4-dihydropyrimidin-1(2H)-yl)acetamido)-N,3-diphenylpropanamide] came in with an inhibition at 2 µM of 35% and an inhibition at 20 µM of 95%. The compound also showed a CC50 at 72 h in data set [1] greater than 50 µM. In addition, the “TSA ΔTm (° C.)” value in data set [2] was 0.5 °C.
For `Cc1ccc(N(C)C(=O)[C@H](Cc2ccccc2)NC(=O)Cn2cc(C)c(=O)[nH]c2=O)cc1` [Example 43, (S)—N-methyl-2-(2-(5-methyl-2,4-dioxo-3,4-dihydropyrimidin-1(2H)-yl)acetamido)-3-phenyl-N-(p-tolyl)propenamide] the same measures were 7%, 85%, greater than 50 µM and 0.6 °C.
The compound `Cc1cn(CC(=O)N[C@@H](Cc2ccccc2)C(=O)N(C)c2ccc(Cl)cc2)c(=O)[nH]c1=O` [Example 44, (S)—N-(4-chlorophenyl)-N-methyl-2-(2-(5-methyl-2,4-dioxo-3,4-dihydropyrimidin-1(2H)-yl)acetamido)-3-phenylpropanamide] showed an EC50 in the data set with HIV-1 of 1.7 ± 0.2 µM. The compound also had a CC50 at 72 h in data set [1] greater than 50 µM. In data set [2], the “TSA ΔTm (° C.)” value was 1.7 °C.
In the data set with HIV-1, `Cc1cn(CC(=O)N[C@@H](Cc2ccccc2)C(=O)N(C)c2cccc(Cl)c2)c(=O)[nH]c1=O` [Example 45, (S)—N-(3-chlorophenyl)-N-methyl-2-(2-(5-methyl-2,4-dioxo-3,4-dihydropyrimidin-1(2H)-yl)acetamido)-3-phenylpropanamide] returned an inhibition at 2 µM of 37% and an inhibition at 20 µM of 95%. In data set [1], the CC50 at 72 h was greater than 50 µM. Also, in data set [2], the “TSA ΔTm (° C.)” value came to 0.6 °C.
In the same order, the values of `Cc1cn(CC(=O)N[C@@H](Cc2ccccc2)C(=O)N(C)c2ccc(F)cc2)c(=O)[nH]c1=O` [Example 46, (S)—N-(4-fluorophenyl)-N-methyl-2-(2-(5-methyl-2,4-dioxo-3,4-dihydropyrimidin-1(2H)-yl)acetamido)-3-phenylpropanamide] are 6%, 94%, greater than 50 µM and 0 °C.
In the same order, the values of `Cc1cn(CC(=O)N[C@@H](Cc2ccccc2)C(=O)N(C)c2cccc(F)c2)c(=O)[nH]c1=O` [Example 47, (S)—N-(3-fluorophenyl)-N-methyl-2-(2-(5-methyl-2,4-dioxo-3,4-dihydropyrimidin-1(2H)-yl)acetamido)-3-phenylpropanamide] are 0%, 74%, greater than 50 µM and 0.9 °C.
In the same order, the values of `Cc1cn(CC(=O)N[C@@H](Cc2ccccc2)C(=O)N(C)c2cccc(Br)c2)c(=O)[nH]c1=O` [Example 48, (S)—N-(3-bromophenyl)-N-methyl-2-(2-(5-methyl-2,4-dioxo-3,4-dihydropyrimidin-1(2H)-yl)acetamido)-3-phenylpropanamide] are 22%, 99.7%, greater than 50 µM and 0.5 °C.
Take `Cc1[nH]c2ccccc2c1CC(=O)N[C@@H](Cc1ccccc1)C(=O)N(C)c1ccccc1` [PF-74, reference compound]: the “HLM half-life (t1/2)” value in data set [3] (human liver microsomes, 1 μM compound, NADPH, without Cobicistat) was “less than 1 min”. Besides, the “MLM half-life (t1/2)” value in data set [4] (1 μM compound, without Cobicistat) is reported as 0.6 min; in data set [4] (1 μM compound, without Cobicistat, listed as PF74), “less than 1 min”.
On to `Cc1cccc2c1NC(=O)C2CC(=O)N[C@@H](Cc1ccccc1)C(=O)N(C)c1ccccc1` (stereo partly shown) [drawing 177], for which the half-life at 1 μM turned out to be 7 min in data set [3] (setting [6]) and 1 min in data set [4] (setting [7]).
Turning to `Cc1cccc2c1NC(=O)C2CC(=O)N[C@@H](Cc1ccccc1)C(=O)N(C)c1cccc(F)c1` (stereo partly shown) [drawing 178], the half-life at 1 μM is 433 min in data set [3] (setting [5]), 2.5 min in data set [3] (setting [6]), 1.1 min in data set [4] (setting [7]) and 20 min in data set [4] (setting [8]).
Turning to `Cc1ccc(C)c2c1NC(=O)C2CC(=O)N[C@@H](Cc1ccccc1)C(=O)N(C)c1ccccc1` (stereo partly shown) [drawing 179], the figures for the half-life at 1 μM in data set [3] (setting [6]) and in data set [4] (setting [7]) were 1.5 min and 0.6 min, respectively.
Consider `Cc1ccc(C)c2c1NC(=O)C2CC(=O)N[C@@H](Cc1ccccc1)C(=O)N(C)c1cccc(Cl)c1` (stereo partly shown) [drawing 180], for which the half-life at 1 μM in data set [3] (setting [5]) was 107 min; in data set [3] (setting [6]) it was 6.7 min; in data set [4] (setting [7]), 1.4 min; in data set [4] (setting [8]) it was 34 min.
As for `CN(C(=O)[C@H](Cc1ccccc1)NC(=O)Cc1ccc2ccccc2c1)c1ccccc1` [drawing 181], the half-life at 1 μM came out at 1.8 min in data set [3] (setting [6]) and 0.5 min in data set [4] (setting [7]).
On to `CN(C(=O)[C@H](Cc1ccccc1)NC(=O)Cc1ccc2ccccc2c1)c1ccc(Cl)cc1` [drawing 182], for which the half-life at 1 μM was found to be 239 min in data set [3] (setting [5]), 2.7 min in data set [3] (setting [6]), 1.4 min in data set [4] (setting [7]) and 18 min in data set [4] (setting [8]).
